According to PubChem BioAssay (NCI):
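Method: 48-hour compound exposure of cells in 96-well plates, five concentrations, linear interpolation of endpoints. The concentration for 50% growth inhibition is given as GI50. TGI marks complete inhibition of growth.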

Assays:
Assay in all cases: NCI tumour cell line growth inhibition, 48 h
PC-3 prostate = test system: PC-3 prostate
SF-539 CNS = test system: SF-539 CNS
MDA-MB-435 = test system: MDA-MB-435
NCI/ADR-RES ovarian = test system: NCI/ADR-RES ovarian
OVCAR-3 ovarian = test system: OVCAR-3 ovarian
HL-60(TB) leukemia = test system: HL-60(TB) leukemia
A498 renal = test system: A498 renal
SF-268 CNS = test system: SF-268 CNS
CCRF-CEM leukemia = test system: CCRF-CEM leukemia
OVCAR-5 ovarian = test system: OVCAR-5 ovarian
RPMI-8226 leukemia = test system: RPMI-8226 leukemia
CAKI-1 renal = test system: CAKI-1 renal
SR leukemia = test system: SR leukemia
UACC-257 melanoma = test system: UACC-257 melanoma
T-47D breast = test system: T-47D breast
COLO 205 colon = test system: COLO 205 colon
U251 CNS = test system: U251 CNS
SK-OV-3 ovarian = test system: SK-OV-3 ovarian
UO-31 renal = test system: UO-31 renal
KM12 colon = test system: KM12 colon
SF-295 CNS = test system: SF-295 CNS
HOP-92 NSCLC = test system: HOP-92 NSCLC
MALME-3M melanoma = test system: MALME-3M melanoma
DU-145 prostate = test system: DU-145 prostate
NCI-H460 lung = test system: NCI-H460 lung
HOP-62 NSCLC = test system: HOP-62 NSCLC
NCI-H522 lung = test system: NCI-H522 lung
786-0 renal = test system: 786-0 renal
SK-MEL-2 melanoma = test system: SK-MEL-2 melanoma
OVCAR-4 ovarian = test system: OVCAR-4 ovarian
OVCAR-8 ovarian = test system: OVCAR-8 ovarian
HT29 colon = test system: HT29 colon
NCI-H226 lung = test system: NCI-H226 lung
MDA-MB-231 breast = test system: MDA-MB-231 breast
BT-549 breast = test system: BT-549 breast
EKVX NSCLC = test system: EKVX NSCLC
TK-10 renal = test system: TK-10 renal
HCC-2998 colon = test system: HCC-2998 colon
MCF7 breast = test system: MCF7 breast
HCT-15 colon = test system: HCT-15 colon
A549 NSCLC = test system: A549 NSCLC
SK-MEL-5 melanoma = test system: SK-MEL-5 melanoma
IGROV1 ovarian = test system: IGROV1 ovarian
MOLT-4 leukemia = test system: MOLT-4 leukemia
NCI-H23 lung = test system: NCI-H23 lung
SN12C renal = test system: SN12C renal
HCT-116 colon = test system: HCT-116 colon
ACHN renal = test system: ACHN renal
SNB-75 CNS = test system: SNB-75 CNS
LOX IMVI melanoma = test system: LOX IMVI melanoma
UACC-62 melanoma = test system: UACC-62 melanoma
M14 melanoma = test system: M14 melanoma
K-562 leukemia = test system: K-562 leukemia
SNB-19 CNS = test system: SNB-19 CNS

## COc1cc(C(=O)/C=C/c2c(-c3cccs3)nc3sc(C)cn23)cc(OC)c1OC
PC-3 prostate
  GI50: 2.8 µM
  TGI: > 100 µM
SF-539 CNS
  GI50: 2.12 µM
  TGI: 5.17 µM
MDA-MB-435
  GI50: 2.68 µM
  TGI: 31.6 µM
NCI/ADR-RES ovarian
  GI50: 2.1 µM
  TGI: 33.9 µM
OVCAR-3 ovarian
  GI50: 2.8 µM
  TGI: 18.7 µM
HL-60(TB) leukemia
  GI50: 2.69 µM
  TGI: > 100 µM
A498 renal
  GI50: 1.51 µM
  TGI: 5.78 µM
SF-268 CNS
  GI50: 3.84 µM
  TGI: > 100 µM
CCRF-CEM leukemia
  GI50: 1.93 µM
  TGI: > 100 µM
OVCAR-5 ovarian
  GI50: 82 µM
  TGI: > 100 µM
RPMI-8226 leukemia
  GI50: 1.67 µM
  TGI: 15.6 µM
CAKI-1 renal
  GI50: 2.92 µM
  TGI: > 100 µM
SR leukemia
  GI50: 1.12 µM
  TGI: 5.46 µM
UACC-257 melanoma
  GI50: 3.86 µM
  TGI: 66 µM
T-47D breast
  GI50: 1.77 µM
  TGI: 7.65 µM
COLO 205 colon
  GI50: 4.01 µM
  TGI: > 100 µM
U251 CNS
  GI50: 3.72 µM
  TGI: > 100 µM
SK-OV-3 ovarian
  GI50: 3.37 µM
  TGI: 10.4 µM
UO-31 renal
  GI50: 1.84 µM
  TGI: 7.97 µM
KM12 colon
  GI50: 2.83 µM
  TGI: > 100 µM
SF-295 CNS
  GI50: 3.69 µM
  TGI: > 100 µM
HOP-92 NSCLC
  GI50: 0.47 µM
  TGI: 4.93 µM
MALME-3M melanoma
  GI50: 3.19 µM
  TGI: 15 µM
DU-145 prostate
  GI50: 2.99 µM
  TGI: 14 µM
NCI-H460 lung
  GI50: 1.87 µM
  TGI: 5.3 µM
HOP-62 NSCLC
  GI50: 5.74 µM
  TGI: 64.5 µM
NCI-H522 lung
  GI50: 1.36 µM
  TGI: 4.57 µM
786-0 renal
  GI50: 3.7 µM
  TGI: 38.2 µM
SK-MEL-2 melanoma
  GI50: 2.73 µM
  TGI: 8.31 µM
OVCAR-4 ovarian
  GI50: 2.85 µM
  TGI: 22.3 µM
OVCAR-8 ovarian
  GI50: 1.21 µM
  TGI: 8.31 µM
HT29 colon
  GI50: 3.91 µM
  TGI: > 100 µM
NCI-H226 lung
  GI50: 4.6 µM
  TGI: 54.8 µM
MDA-MB-231 breast
  GI50: 2.96 µM
  TGI: 31.1 µM
BT-549 breast
  GI50: 3.82 µM
  TGI: 39.9 µM
EKVX NSCLC
  GI50: 1.99 µM
  TGI: > 100 µM
TK-10 renal
  GI50: 6.16 µM
  TGI: > 100 µM
HCC-2998 colon
  GI50: 3.87 µM
  TGI: 12.4 µM
MCF7 breast
  GI50: 2.35 µM
  TGI: 20.5 µM
HCT-15 colon
  GI50: 3.38 µM
  TGI: > 100 µM
A549 NSCLC
  GI50: 2.69 µM
  TGI: 19.6 µM
SK-MEL-5 melanoma
  GI50: 0.948 µM
  TGI: 3.22 µM
IGROV1 ovarian
  GI50: 2.53 µM
  TGI: 6.35 µM
MOLT-4 leukemia
  GI50: 1.27 µM
  TGI: 6.62 µM
NCI-H23 lung
  GI50: 4.97 µM
  TGI: > 100 µM
SN12C renal
  GI50: 5.29 µM
  TGI: > 100 µM
HCT-116 colon
  GI50: 3.8 µM
  TGI: > 100 µM
ACHN renal
  GI50: 5.15 µM
  TGI: > 100 µM
SNB-75 CNS
  GI50: 2.49 µM
  TGI: 6.93 µM
LOX IMVI melanoma
  GI50: 3.84 µM
  TGI: > 100 µM
UACC-62 melanoma
  GI50: 2.52 µM
  TGI: 19.9 µM
M14 melanoma
  GI50: 5.59 µM
  TGI: > 100 µM
K-562 leukemia
  GI50: 2.07 µM
  TGI: > 100 µM
SNB-19 CNS
  GI50: 2.91 µM
  TGI: 13.3 µM
